Where “and” joins values, the source holds several entries; their conditions need not be identical. Equal entries are not always repeated.
Assay: Kinetic studies of the plasma concentration in animals with different crystalline forms of AD (oral, monkeys; adefovir measured in serum by HPLC)
Assay type: in vivo, Macaques
Experimental: The experiment was carried out by orally administering to monkeys the drugs in order to investigate the in vivo absorption of two crystalline forms of AD: the novel crystalline AD of the present invention produced by Tianjin Kinsly pharmaceutical R & D Co. Ltd. and crystalline form I of AD prepared according to the method of GILEAD SCIENCES INC. The experiment provides useful clinical references for the application of novel crystalline AD.
Tablets of novel crystalline form of AD, white, each of which contains 10 mg of adefovir, Tianjin Kinsly pharmaceutical R&D Co. Ltd., batch number 020320.
Tablets of AD crystalline form I, white, each of which contains 10 mg of adefovir, Tianjin Kinsly pharmaceutical R&D Co. Ltd., batch number 020225.
Macaques, weighing from 5 kg to 8 kg (certificate No: 2001-03, approved by Beijing Forestry Administration in the document of [2001] 83) were provided by Xie'er Animal Health Caring Science and Technology Co. Ltd (Beijing, P. R. China).
As the pro-drug of adefovir, AD is the bis-pivaloyloxymethyl ester of adefovir, which increases the in vivo bioavailability of orally administered adefovir. AD can be rapidly metabolized into PMEA, rendering it undetectable in blood. Thus the concentration of its parent compound was measured.
Mobile phase: 0.2% phosphoric acid-methanol-B7 (97:3:0.5) degassed and filtrated through 0.45 μm milipore filter.
Stationary phase: C18-column (4.6×250 mm) packed with 5μ fillers, Tianjin Tianhe Chromatogram Inc, the column temperature from 18° C. to 22° C.
Detection: the UV detection wavelength λ=260 nm (0.01AUFS)
A given volume of serum was taken and an equal volume of 10% trichloroacetic acid was added. The mixture was shaken thoroughly and kept still for more than 30 min to precipitate the proteins, then centrifuged at 10000 rpm for 2 min. The precipitates were separated and 30 μL of the supernat was removed for injection.
The experiment was started one week after intestinal worms were dispelled from the animals. Eight animals were randomly assigned into two groups, each consisting of four animals. The animals were fasted for 12 h and were orally administered the novel crystalline form of AD for one group or crystalline form I of AD for another group at a dose of 20 mg/kg together with 200 ml of water. 2 hours after administration, the animals were fed in a fixed quantity. 2.0 ml samples of whole blood were collected from the elbow veins before administration and 10, 20, 30, 45 min and 1, 2, 4, 6, 8, 12, and 24 h after administration. The serum was separated and freeze-stored for measurement. A cross-experiment was done similarly 2 weeks later.
The pharmacokinetic parameters were calculated based on the plasma concentrations at different time points. The time to peak concentration (Tpeak) and the maximum concentration (Cmax) used the measured value. The terminal phase elimination rate constant (Ke) was obtained by fitting the linear section of the curve of logarithm of the plasma concentration of drug in terminal phase versus time and the terminal phase clearance half life time (T1/2) was calculated by dividing 0.693 by Ke. AUC0-t was calculated according to the trapezoid rule.
Apparent volume of distribution (Vd)=dosage/(AUCXKe);
Total Clearance (CL)=dosage/AUC.
Comparison of the data of the two crystalline form: Data of Cmax, Ke, T1/2 and AUC0-t were statistically processed by t test, while Tpeak was processed by non-parametric test. In addition, Comparison of bio-equivalence was carried out based on Cmax and AUC0-t by using two one-sided t test.
Eight macaques were assigned into two groups, group for the novel crystalline form and the group for crystalline form I. The animals were administered according to an open randomized crossover scheme. Afterward, adefovir concentrations in serum were measured at the predetermined time points. […]

[1] = adefovir, oral 20 mg/kg, macaques, average of 8 animals (ASD row)
[2] = adefovir, oral 20 mg/kg, macaques, individual animal No. 1-8, listed as Crystalline form I, 20 mg/kg

CC(C)(C)C(=O)OCOP(=O)(COCCn1cnc2c(N)ncnc21)OCOC(=O)C(C)(C)C [crystalline form I, reference compound]
Adefovir concentrations in serum (Plasma concentrations versus time), average (0.167 h after oral administration, 20 mg/kg, macaques, average of 8 animals (ASD row)): 77.0 ng/mL | Adefovir concentrations in serum (Plasma concentrations versus time) (0.167 h after oral administration, 20 mg/kg, macaques, individual animal No. 1-8, 20 mg/kg): 66.6 ng/mL and 90.1 ng/mL | Adefovir concentrations in serum (Plasma concentrations versus time), average (0.333 h after oral administration, 20 mg/kg, macaques, average of 8 animals (ASD row)): 235.4 ng/mL | Adefovir concentrations in serum (Plasma concentrations versus time) (0.333 h after oral administration, 20 mg/kg, macaques, individual animal No. 1-8, 20 mg/kg): 148.0 ng/mL | Adefovir concentrations in serum (Plasma concentrations versus time), average (0.5 h after oral administration, 20 mg/kg, macaques, average of 8 animals (ASD row)): 546.7 ng/mL | Adefovir concentrations in serum (Plasma concentrations versus time) (0.5 h after oral administration, 20 mg/kg, macaques, individual animal No. 1-8, 20 mg/kg): 397.9 ng/mL | Adefovir concentrations in serum (Plasma concentrations versus time), average (0.75 h after oral administration, 20 mg/kg, macaques, average of 8 animals (ASD row)): 350.9 ng/mL | Adefovir concentrations in serum (Plasma concentrations versus time) (0.75 h after oral administration, 20 mg/kg, macaques, individual animal No. 1-8, 20 mg/kg): 305.2 ng/mL | Adefovir concentrations in serum (Plasma concentrations versus time), average (1 h after oral administration, 20 mg/kg, macaques, average of 8 animals (ASD row)): 285.2 ng/mL | Adefovir concentrations in serum (Plasma concentrations versus time) (1 h after oral administration, 20 mg/kg, macaques, individual animal No. 1-8, 20 mg/kg): 196.6 ng/mL | Adefovir concentrations in serum (Plasma concentrations versus time), average (2 h after oral administration, 20 mg/kg, macaques, average of 8 animals (ASD row)): 230.5 ng/mL | Adefovir concentrations in serum (Plasma concentrations versus time) (2 h after oral administration, 20 mg/kg, macaques, individual animal No. 1-8, 20 mg/kg): 161.3 ng/mL | Adefovir concentrations in serum (Plasma concentrations versus time), average (4 h after oral administration, 20 mg/kg, macaques, average of 8 animals (ASD row)): 177.5 ng/mL | Adefovir concentrations in serum (Plasma concentrations versus time) (4 h after oral administration, 20 mg/kg, macaques, individual animal No. 1-8, 20 mg/kg): 89.3 ng/mL | Adefovir concentrations in serum (Plasma concentrations versus time), average (6 h after oral administration, 20 mg/kg, macaques, average of 8 animals (ASD row)): 146.8 ng/mL | Adefovir concentrations in serum (Plasma concentrations versus time) (6 h after oral administration, 20 mg/kg, macaques, individual animal No. 1-8, 20 mg/kg): 102.0 ng/mL | Adefovir concentrations in serum (Plasma concentrations versus time), average (8 h after oral administration, 20 mg/kg, macaques, average of 8 animals (ASD row)): 116.7 ng/mL | Adefovir concentrations in serum (Plasma concentrations versus time) (8 h after oral administration, 20 mg/kg, macaques, individual animal No. 1-8, 20 mg/kg): 82.9 ng/mL | Adefovir concentrations in serum (Plasma concentrations versus time), average (12 h after oral administration, 20 mg/kg, macaques, average of 8 animals (ASD row)): 86.0 ng/mL | Adefovir concentrations in serum (Plasma concentrations versus time) (12 h after oral administration, 20 mg/kg, macaques, individual animal No. 1-8, 20 mg/kg): 70.1 ng/mL and 72.6 ng/mL | Adefovir concentrations in serum (Plasma concentrations versus time), average (24 h after oral administration, 20 mg/kg, macaques, average of 8 animals (ASD row)): 44.3 ng/mL | Adefovir concentrations in serum (Plasma concentrations versus time) (24 h after oral administration, 20 mg/kg, macaques, individual animal No. 1-8, 20 mg/kg): 36.8 ng/mL and 56.6 ng/mL | Vd (adefovir apparent volume of distribution, oral 20 mg/kg, macaques, individual animal No. 1-8, 20 mg/kg): 125.6 L and 107.3 L and 85.8 L and 95.0 L and 145.1 L and 76.6 L and 158.8 L and 99.9 L | average AUCO-T (adefovir, oral 20 mg/kg): 2723.82 ng·h/mL | average Tpeak (adefovir, oral 20 mg/kg): 0.53 h | average apparent volume of distribution (Vc) (adefovir, oral 20 mg/kg): 17.50 L | average elimination half-life time (adefovir, oral 20 mg/kg): 10.5 h | average peak concentration (adefovir, oral 20 mg/kg): 551.21 ng/mL | Cmax, average (adefovir, oral 20 mg/kg, macaques, average of 8 animals): 551.21 ng/mL | CL, average [1]: 7723.2 mL/h | Ke, average [1]: 0.072 L/h | T1/2, average [1]: 10.5 h | Tpeak, average [1]: 0.53 h | Vd, average [1]: 117.0 L | AUC0-t, average (adefovir, oral 20 mg/kg, macaques, average of 8 animals, listed as Crystalline form I, 20 mg/kg): 2723.8 ng·h/mL | AUC0-t, average (adefovir, oral 20 mg/kg, macaques, average of 8 animals, listed as Form I, 20 mg/kg): 2724 ng·h/mL | AUC0-t [2]: 2214.1 ng·h/mL and 2624.4 ng·h/mL and 2188.0 ng·h/mL and 3647.5 ng·h/mL and 3379.4 ng·h/mL and 3452.3 ng·h/mL and 2317.8 ng·h/mL and 1967.0 ng·h/mL | Cmax [2]: 402.2 ng/mL and 785.4 ng/mL and 366.2 ng/mL and 698.1 ng/mL and 915.4 ng/mL and 432.2 ng/mL and 412.3 ng/mL and 397.9 ng/mL | T1/2 [2]: 9.6 h and 9.8 h and 6.5 h and 12.0 h and 17.0 h and 9.2 h and 12.8 h and 6.8 h | Tpeak [2]: 0.5 h (7×) and 0.75 h | Cmax (adefovir, oral 20 mg/kg, macaques, individual animal No. 1-8, listed as Form I, 20 mg/kg): 689.1 ng/mL

Reference: US7417036B2, “Crystal form of adefovir dipivoxil and its preparation” (Tianjin Kinsly Pharmaceutical Co. Ltd., priority 2002, dated 2008)
